According to ChEMBL document CHEMBL1201862, “PubChem BioAssay data set” (2004):
Activity calls are given as the source filed them.

How the values were obtained:
SUMO-activating enzyme = SUMO-activating enzyme (Homo sapiens, UniProt Q9UBT2); assay: blockers of SAE1/SAE2–UBC9 SUMO transfer – biochemical, HTRF, uHTS, primary screen (AID 2006); format: protein-complex assay
[1] = target: T1, Replicative DNA helicase DnaB (Mycobacterium tuberculosis, UniProt P9WMR3); assay: DnaB intein splicing inhibitors, dose response, biochemical, cell-free fluorescence (AID 449749); format: functional
T1 sequence (P9WMR3 whole entry): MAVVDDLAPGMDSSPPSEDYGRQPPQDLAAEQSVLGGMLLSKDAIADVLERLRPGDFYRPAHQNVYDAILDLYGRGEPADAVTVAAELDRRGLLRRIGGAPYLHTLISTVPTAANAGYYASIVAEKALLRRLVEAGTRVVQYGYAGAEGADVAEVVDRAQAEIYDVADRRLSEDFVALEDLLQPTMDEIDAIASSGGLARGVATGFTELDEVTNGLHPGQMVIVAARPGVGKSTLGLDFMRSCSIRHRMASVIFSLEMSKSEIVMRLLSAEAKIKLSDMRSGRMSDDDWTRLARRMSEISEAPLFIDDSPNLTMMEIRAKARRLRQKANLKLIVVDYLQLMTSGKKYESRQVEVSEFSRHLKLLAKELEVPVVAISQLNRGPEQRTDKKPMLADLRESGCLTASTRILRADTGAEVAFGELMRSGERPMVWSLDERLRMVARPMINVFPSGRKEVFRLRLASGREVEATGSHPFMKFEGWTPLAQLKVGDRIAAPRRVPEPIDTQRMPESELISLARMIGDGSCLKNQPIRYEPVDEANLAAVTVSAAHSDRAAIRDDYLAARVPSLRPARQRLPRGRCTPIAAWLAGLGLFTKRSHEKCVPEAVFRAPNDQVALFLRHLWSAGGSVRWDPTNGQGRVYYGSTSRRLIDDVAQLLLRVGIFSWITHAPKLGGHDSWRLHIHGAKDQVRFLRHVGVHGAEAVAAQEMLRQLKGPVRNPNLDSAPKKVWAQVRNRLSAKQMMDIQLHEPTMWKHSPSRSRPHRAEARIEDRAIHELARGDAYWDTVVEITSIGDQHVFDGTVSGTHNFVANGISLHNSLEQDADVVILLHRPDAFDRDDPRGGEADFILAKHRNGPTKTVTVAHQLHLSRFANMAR

cells = format: functional, cell-based
BJ [2] = assay: BJ-TERT fibroblast viability loss – cell-based, RAS-independent, luminescence, dose response (AID 1933); format: functional; settings: Homo sapiens
[3] = target: T2, Alkaline phosphatase, tissue-nonspecific isozyme (Homo sapiens, UniProt P05186); assay: activation of tissue-nonspecific alkaline phosphatase – biochemical, TNAP isozyme, human IAP uHTS hits, selectivity assay for human IAP activator project, dose response (AID 488886); format: functional;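 also: potency of compounds raising TNAP activity as a selectivity check on IAP activators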
T2 sequence (P05186 whole entry): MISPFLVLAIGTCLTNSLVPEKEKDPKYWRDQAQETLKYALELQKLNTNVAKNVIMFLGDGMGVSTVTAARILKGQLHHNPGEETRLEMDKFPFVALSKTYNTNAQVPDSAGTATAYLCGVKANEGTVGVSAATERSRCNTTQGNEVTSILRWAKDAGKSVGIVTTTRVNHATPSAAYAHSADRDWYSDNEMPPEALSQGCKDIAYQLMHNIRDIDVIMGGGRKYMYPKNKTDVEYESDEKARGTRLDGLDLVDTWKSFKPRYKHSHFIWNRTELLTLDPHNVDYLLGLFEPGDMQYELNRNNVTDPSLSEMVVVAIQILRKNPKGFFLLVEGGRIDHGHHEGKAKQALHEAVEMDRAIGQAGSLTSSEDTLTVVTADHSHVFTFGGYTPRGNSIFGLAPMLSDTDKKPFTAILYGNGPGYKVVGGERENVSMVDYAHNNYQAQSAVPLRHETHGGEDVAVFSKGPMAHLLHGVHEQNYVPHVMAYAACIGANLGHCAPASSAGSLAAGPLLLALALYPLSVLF

Prothrombin = Prothrombin (Bos taurus, UniProt P00735); assay: thrombin protease inhibitors – biochemical, fluorescence polarization, uHTS hits, dose response (AID 602369); format: functional
BJ [4] = assay: cells; format: functional, cell-based; settings: Homo sapiens
[5] = target: Serine/threonine-protein kinase Chk1 (Homo sapiens, UniProt O14757); format: functional;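 also: measured as one member of a kinome-wide kinase profiling panel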
Chain of Serine/threonine-protein kinase Chk1 (O14757 whole entry): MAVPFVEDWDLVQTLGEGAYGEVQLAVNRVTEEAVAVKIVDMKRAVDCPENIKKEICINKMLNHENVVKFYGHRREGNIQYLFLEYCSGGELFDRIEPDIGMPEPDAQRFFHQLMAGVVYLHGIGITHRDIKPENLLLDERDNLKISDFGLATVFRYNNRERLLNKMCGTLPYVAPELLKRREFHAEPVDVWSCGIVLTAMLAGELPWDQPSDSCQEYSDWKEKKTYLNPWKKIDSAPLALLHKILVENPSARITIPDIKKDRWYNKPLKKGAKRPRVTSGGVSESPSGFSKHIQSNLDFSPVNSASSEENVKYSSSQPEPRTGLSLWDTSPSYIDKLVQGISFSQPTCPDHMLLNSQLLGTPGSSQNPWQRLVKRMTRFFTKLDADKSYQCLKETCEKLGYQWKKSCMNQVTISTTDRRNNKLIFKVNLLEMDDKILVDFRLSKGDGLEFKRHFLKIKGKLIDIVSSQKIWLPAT

[6] = target: Platelet-derived growth factor receptor alpha (Homo sapiens, UniProt P16234); assay: Navigating the Kinome. Panel member name: PDGFRA; format: functional
Chain of Platelet-derived growth factor receptor alpha (P16234 whole entry): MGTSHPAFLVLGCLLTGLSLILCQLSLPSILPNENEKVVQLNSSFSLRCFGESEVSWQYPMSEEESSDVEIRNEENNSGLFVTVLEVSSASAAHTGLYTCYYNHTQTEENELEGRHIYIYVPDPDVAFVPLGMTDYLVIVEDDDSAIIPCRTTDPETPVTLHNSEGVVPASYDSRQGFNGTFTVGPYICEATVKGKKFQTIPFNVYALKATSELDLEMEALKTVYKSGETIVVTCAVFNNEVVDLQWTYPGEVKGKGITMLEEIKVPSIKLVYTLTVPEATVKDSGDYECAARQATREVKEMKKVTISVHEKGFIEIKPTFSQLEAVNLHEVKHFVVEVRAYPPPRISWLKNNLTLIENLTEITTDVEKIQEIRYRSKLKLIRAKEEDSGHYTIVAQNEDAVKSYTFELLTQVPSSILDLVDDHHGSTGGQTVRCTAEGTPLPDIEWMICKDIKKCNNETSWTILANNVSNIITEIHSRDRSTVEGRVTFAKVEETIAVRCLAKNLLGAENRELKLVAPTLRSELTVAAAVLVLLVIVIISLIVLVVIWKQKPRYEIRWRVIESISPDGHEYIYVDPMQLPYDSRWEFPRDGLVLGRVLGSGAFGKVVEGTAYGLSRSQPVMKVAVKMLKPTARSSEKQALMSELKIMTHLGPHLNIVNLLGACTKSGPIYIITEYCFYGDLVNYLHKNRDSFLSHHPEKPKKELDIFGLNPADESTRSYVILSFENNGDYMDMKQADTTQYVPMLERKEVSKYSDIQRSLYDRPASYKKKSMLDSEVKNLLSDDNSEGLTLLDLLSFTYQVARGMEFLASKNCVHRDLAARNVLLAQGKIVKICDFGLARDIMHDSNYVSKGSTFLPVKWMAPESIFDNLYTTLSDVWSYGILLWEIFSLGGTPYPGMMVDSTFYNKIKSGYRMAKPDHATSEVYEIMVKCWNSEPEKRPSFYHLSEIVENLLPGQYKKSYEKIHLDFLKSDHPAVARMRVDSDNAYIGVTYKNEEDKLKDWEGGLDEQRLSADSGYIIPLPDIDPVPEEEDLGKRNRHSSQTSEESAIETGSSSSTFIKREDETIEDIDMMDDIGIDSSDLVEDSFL

[7] = target: Maternal embryonic leucine zipper kinase (Homo sapiens, UniProt Q14680); format: functional
Chain of Maternal embryonic leucine zipper kinase (Q14680 whole entry): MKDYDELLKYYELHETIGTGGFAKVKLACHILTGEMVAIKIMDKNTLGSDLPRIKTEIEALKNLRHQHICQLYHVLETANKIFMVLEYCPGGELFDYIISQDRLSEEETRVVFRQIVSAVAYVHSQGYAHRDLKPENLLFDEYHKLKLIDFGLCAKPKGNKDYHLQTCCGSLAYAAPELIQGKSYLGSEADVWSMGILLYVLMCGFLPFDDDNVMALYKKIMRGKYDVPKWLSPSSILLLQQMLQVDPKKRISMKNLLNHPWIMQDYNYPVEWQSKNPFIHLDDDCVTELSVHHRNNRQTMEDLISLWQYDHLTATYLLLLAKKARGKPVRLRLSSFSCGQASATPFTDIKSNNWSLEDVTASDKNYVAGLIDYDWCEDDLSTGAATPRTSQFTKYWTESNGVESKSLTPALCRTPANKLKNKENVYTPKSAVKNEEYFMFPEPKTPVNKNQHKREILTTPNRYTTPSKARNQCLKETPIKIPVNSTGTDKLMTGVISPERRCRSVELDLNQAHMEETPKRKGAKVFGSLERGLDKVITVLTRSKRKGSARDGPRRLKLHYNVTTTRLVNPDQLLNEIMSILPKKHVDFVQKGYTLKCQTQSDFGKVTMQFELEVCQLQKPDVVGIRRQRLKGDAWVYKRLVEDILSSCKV

HeLa = assay: Cytotoxicity counterscreen assay for transcriptional activators of heat shock protein 70 (Hsp70). [Related pubchem assays: 1203, 1252 ]; format: functional; settings: Homo sapiens;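 also: cells exposed to compound for 16 hours before readout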
[8] = target: T3, Serine/threonine-protein phosphatase (Candida dubliniensis (strain CD36 / CBS 7987 / NCPF 3949 / NRRLY-17841) (Yeast), UniProt B9W6M3); assay: blockers of CaCl2-induced CDRE-lacZ signaling – S. cerevisiae, luminescence, secondary, dose response (AID 2388); format: functional, cell-based;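 also: yeast reporter cells carrying a calcineurin-responsive lacZ construct stimulated with calcium chloride; luminescent beta-galactosidase reporter signal in whole cells rather than isolated phosphatase activity; potency for inhibition where a drop in reporter signal means calcineurin blockade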
T3 sequence (B9W6M3 whole entry): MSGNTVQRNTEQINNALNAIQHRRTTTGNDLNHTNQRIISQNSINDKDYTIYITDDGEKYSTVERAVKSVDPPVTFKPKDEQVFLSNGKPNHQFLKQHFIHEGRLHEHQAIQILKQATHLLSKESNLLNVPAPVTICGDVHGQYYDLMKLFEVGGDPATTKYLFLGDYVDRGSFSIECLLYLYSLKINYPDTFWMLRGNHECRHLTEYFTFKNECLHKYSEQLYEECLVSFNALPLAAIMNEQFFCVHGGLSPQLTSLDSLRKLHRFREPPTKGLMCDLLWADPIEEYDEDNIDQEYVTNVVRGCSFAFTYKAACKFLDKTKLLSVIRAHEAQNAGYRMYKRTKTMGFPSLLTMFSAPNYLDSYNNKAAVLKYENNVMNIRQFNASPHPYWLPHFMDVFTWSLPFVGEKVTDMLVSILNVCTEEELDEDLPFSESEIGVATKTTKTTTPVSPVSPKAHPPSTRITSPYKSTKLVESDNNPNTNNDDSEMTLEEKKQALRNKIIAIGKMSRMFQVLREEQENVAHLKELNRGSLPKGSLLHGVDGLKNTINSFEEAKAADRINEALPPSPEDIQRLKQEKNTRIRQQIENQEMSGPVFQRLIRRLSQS

[9] = luciferase reporter signal reduction – luminescence, H4-C neuroglioblastoma cells, dose response (AID 2458); format: functional, cell-based;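 also: H4 neuroglioblastoma cells stably carrying a luciferase reporter gene fusion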
[10] = alpha-synuclein stem-loop luciferase translation blockers – H4 neuroglioma cells, luminescence, confirmation (AID 1988); format: functional, cell-based

Chain of SUMO-activating enzyme (Q9UBE0 whole entry): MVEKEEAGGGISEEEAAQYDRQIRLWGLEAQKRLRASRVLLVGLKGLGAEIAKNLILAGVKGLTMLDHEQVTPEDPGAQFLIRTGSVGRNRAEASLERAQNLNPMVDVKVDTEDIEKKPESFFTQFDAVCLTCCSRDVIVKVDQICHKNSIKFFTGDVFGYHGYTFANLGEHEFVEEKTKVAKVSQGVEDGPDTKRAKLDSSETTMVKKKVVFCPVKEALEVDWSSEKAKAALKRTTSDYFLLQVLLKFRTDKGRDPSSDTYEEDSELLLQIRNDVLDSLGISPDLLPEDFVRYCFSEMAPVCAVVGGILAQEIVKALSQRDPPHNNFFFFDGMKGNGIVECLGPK
Chain of SUMO-activating enzyme (Q9UBT2 whole entry): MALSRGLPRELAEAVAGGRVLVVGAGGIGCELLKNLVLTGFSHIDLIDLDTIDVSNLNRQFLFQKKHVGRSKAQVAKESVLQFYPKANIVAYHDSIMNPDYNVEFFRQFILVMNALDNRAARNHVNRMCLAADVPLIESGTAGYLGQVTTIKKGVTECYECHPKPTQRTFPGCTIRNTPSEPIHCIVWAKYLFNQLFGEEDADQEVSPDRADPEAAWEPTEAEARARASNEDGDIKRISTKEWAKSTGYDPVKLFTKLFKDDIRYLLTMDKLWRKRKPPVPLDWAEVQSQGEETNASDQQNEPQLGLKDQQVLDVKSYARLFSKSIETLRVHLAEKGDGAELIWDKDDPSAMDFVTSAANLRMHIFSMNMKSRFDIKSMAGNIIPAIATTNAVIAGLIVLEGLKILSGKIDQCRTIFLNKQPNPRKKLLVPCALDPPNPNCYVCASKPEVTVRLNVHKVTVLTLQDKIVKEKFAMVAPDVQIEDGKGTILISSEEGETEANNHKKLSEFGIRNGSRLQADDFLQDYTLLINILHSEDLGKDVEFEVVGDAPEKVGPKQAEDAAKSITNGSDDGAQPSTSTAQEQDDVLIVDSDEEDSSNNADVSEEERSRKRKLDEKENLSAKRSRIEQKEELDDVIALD

O=C(Cc1ccccc1Cl)NC1(O)C(=O)c2ccccc2C1=O
IC50 (SUMO-activating enzyme): 26 µM (active)
AC50 [1]: 7.96 µM (active)

O=C(N/N=C/c1c(O)ccc2ccccc12)c1[nH]ncc1Br
EC50 (cells): 10.7 µM (active)
EC50 (BJ [2]): 24.6 µM (active)
EC50 [3]: > 100 µM (inactive)
IC50 (Prothrombin): 91.6 µM (active)
EC50 (BJ [4]): 7.88 µM (active)

Nc1c(-c2ccc(NC(=O)Nc3cccc(C(F)(F)F)c3)cc2)cnc2c(-c3ccc4c(c3)OCO4)cnn12
Ki [5]: > 3.16 µM (inactive)

O=C(Nc1cc(-c2c[nH]c3ncccc23)cc(Cl)n1)c1ccccc1
Ki [6]: > 2.51 µM (inactive)
Ki [7]: 0.0316 µM (active)

CCN1C(=Cc2sc3ccccc3[n+]2C)C=Cc2cccc(C)c21
CC50 (HeLa): 1.87 µM (active)
EC50 [8]: > 180 µM (inactive)
EC50 [9]: 3.14 µM (active)
EC50 [10]: < 0.1 µM (active)
